Assay results from patent publication US20060134008A1, “Compositions and methods for pulmonary conditions” (priority 2004, published 2006).

Assays:
[1] = in average [70-kg] adult; cited from earlier work
[2] = system: guinea pigs immunized against ovalbumin
guinea pigs [3] = assay: Methacholine-induced bronchoconstriction (PenH), methacholine 20-30 minutes after isoflurane anesthesia and airway instillation; settings: for block of methacholine and lidocaine induced bronchoconstriction (PenH): instilled with lidocaine, methacholine within 20-30 minutes of terminating anesthesia, FIG. 4; for PenH after methacholine by nebulization: methacholine 20-30 minutes following treatment, 200-300 μL instilled
Procedure: Guinea pigs were anesthetized with isoflurane and one of the following treatments instilled into the airway using a Penn Century device designed for liquid instillation: a) saline; b) lidocaine; c) IpBr or d) lidocaine and IpBr. The volume of liquid instilled was between 200-300 μL for each treatment group. Between 20 and 30 minutes following treatment all animals received methacholine by nebulization.

guinea pigs [4] = assay: Methacholine-induced bronchoconstriction (PenH), methacholine approximately 10-15 minutes after isoflurane anesthesia and treatment; settings: FIG. 5
Procedure: A second study was conducted to evaluate the ability of IpBr and epinephrine to reduce lidocaine/methacholine induced bronchoconstriction earlier relative to the termination of isoflurane. […] Guinea pigs were anesthetized with isoflurane and treated with: a) saline; b) lidocaine; c) lidocaine plus epinephrine; or d) lidocaine plus IpBr. Approximately 10-15 minutes later each guinea pig was exposed to methacholine by nebulization.

[5] = given with lidocaine, methacholine approximately 10-15 minutes later

CCCCN1CCCCC1C(=O)Nc1c(C)cccc1C (stereo not shown) [Bupivacaine]
Maximum one-time dose (volume) [1]: (50 mL in average [70-kg] adult)

CC(C)[N+]1(C)[C@@H]2CC[C@H]1CC(OC(=O)C(CO)c1ccccc1)C2.[Br-] (stereo partly shown) [IpBr, ipratropium bromide]
effect of concomitant administration on lidocaine-induced increase in PenH ([2]; co-administered with lidocaine, FIG. 2, PenH similar to saline only): blocked the effect of lidocaine on PenH | block of methacholine and lidocaine induced bronchoconstriction (PenH) (guinea pigs [3]): blocks methacholine-induced bronchoconstriction out to 30 minutes of treatment | PenH after methacholine by nebulization (guinea pigs [3]; FIG. 3): effective in blocking methacholine induced bronchoconstriction | effect on PenH (in words) (guinea pigs [4]; [5]): greatly reduce PenH back to baseline levels | reduction of PenH relative to animals receiving only lidocaine (guinea pigs [4]; [5]): approximately 90%

CCN(CC)CC(=O)Nc1c(C)cccc1C [Lidocaine, lidocaine]
magnitude of the lidocaine-induced PenH increase ([2]; 1.25 or 2.5 mg instilled, FIG. 1): dose-dependent | Maximum one-time dose (volume) [1]: (30 mL in average [70-kg] adult) | effect on the bronchoconstrictive action of methacholine (guinea pigs [3]; 15 and 30 minutes following termination of isoflurane anesthesia): enhanced the bronchoconstrictive action of methacholine | block of methacholine and lidocaine induced bronchoconstriction (PenH) (guinea pigs [3]): no differences in PenH | PenH after methacholine by nebulization (guinea pigs [3]; FIG. 3): increase PenH relative to guinea pigs receiving only saline | PenH relative to baseline (guinea pigs [4]; methacholine approximately 10-15 minutes after treatment): increase in PenH over baseline

Cc1cccc(C)c1NC(=O)C1CCCCN1C (stereo not shown) [Mepivacaine]
Maximum one-time dose (volume) [1]: (30 mL in average [70-kg] adult)

CNC[C@H](O)c1ccc(O)c(O)c1 [epinephrine]
block of methacholine and lidocaine induced bronchoconstriction (PenH) (guinea pigs [3]): but not epinephrine, blocks methacholine-induced bronchoconstriction | effect on PenH (in words) (guinea pigs [4]; [5]): reduced PenH to levels similar to those observed in saline treated animals

FC(F)OC(Cl)C(F)(F)F (stereo not shown) [isoflurane]
time for which the bronchoconstrictive effects of methacholine are reduced (guinea pigs [3]; inhaled anesthetic, FIG. 3): 20 to 30 min
